Experimental data taken from the supplement of paper PMC10307832.

Experiments:
Assay in all cases: relative viability (nuclei count vs DMSO), 5 days (fraction); higher = more cells survive
[1] = compound: O=C1NC(=O)[C@@H](c2cn3c4c(cccc24)CCC3)[C@@H]1c1c[nH]c2ccccc12 [Tivantinib] + CCNC(=O)c1noc(-c2cc(C(C)C)c(O)cc2O)c1-c1ccc(CN2CCOCC2)cc1 [Luminespib] (partner 0.01 µM)
Method in brief: (§1)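 Values are medians from duplicate plates. Each reflects relative viability, defined as the nuclei count of treated wells over that of vehicle wells. Lung cancer cell lines in 1536-well plates were pin-tool dosed one day after seeding with one drug alone or with a fixed anchor-drug dose plus five library-drug doses (not always all listed) in √10 steps, then fixed, stained and imaged at 4× after 5 days.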

[2] = compound: CC1(COc2ccc3c(c2)ncn3-c2ccc3cccc(N4CCC(N)CC4)c3n2)COC1 [Crenolanib] + C[C@]1(O)C[C@@H](c2nc(-c3ccc4ccc(-c5ccccc5)nc4c3)c3c(N)nccn32)C1 [Linsitinib] (partner 1 µM)
Method in brief: as §1

[3] = compound: CC1(COc2ccc3c(c2)ncn3-c2ccc3cccc(N4CCC(N)CC4)c3n2)COC1 [Crenolanib] + COc1cccc2cc(-c3nc([C@H]4CC[C@H](C(=O)O)CC4)n4ncnc(N)c34)[nH]c12 [OSI-027] (partner 0.5 µM)
Method in brief: as §1

[4] = compound: CC1(COc2ccc3c(c2)ncn3-c2ccc3cccc(N4CCC(N)CC4)c3n2)COC1 [Crenolanib] + N=C(N)NC(=N)NCCc1ccccc1 [Phenformin] (partner 250 µM)
Method in brief: as §1

Cell Line: EPLC-272H
- relative viability ([1]; first compound 0.01 µM): 0.374
- relative viability ([1]; first compound 0.03162 µM): 0.23
- relative viability ([1]; first compound 0.1 µM): 0.431
- relative viability ([1]; first compound 0.3162 µM): 0.19
- relative viability ([2]; first compound 0.03162 µM): 1.19
- relative viability ([2]; first compound 0.1 µM): 0.982
- relative viability ([2]; first compound 0.3162 µM): 1.18
- relative viability ([2]; first compound 1 µM): 1.06
- relative viability ([3]; first compound 0.01 µM): 0.315
- relative viability ([3]; first compound 0.03162 µM): 0.288
- relative viability ([3]; first compound 0.1 µM): 0.249
- relative viability ([3]; first compound 0.3162 µM): 0.296
- relative viability ([3]; first compound 1 µM): 0.329
- relative viability ([4]; first compound 0.01 µM): 0.356
- relative viability ([4]; first compound 0.03162 µM): 0.331
- relative viability ([4]; first compound 0.1 µM): 0.224
- relative viability ([4]; first compound 0.3162 µM): 0.375
- relative viability ([4]; first compound 1 µM): 0.382

Cell Line: LXF-289
- relative viability ([1]; first compound 0.01 µM): 0.757
- relative viability ([1]; first compound 0.03162 µM): 0.646
- relative viability ([1]; first compound 0.1 µM): 0.599
- relative viability ([1]; first compound 0.3162 µM): 0.723
- relative viability ([2]; first compound 0.01 µM): 0.974
- relative viability ([2]; first compound 0.03162 µM): 1.02
- relative viability ([2]; first compound 0.1 µM): 0.955
- relative viability ([2]; first compound 0.3162 µM): 1.02
- relative viability ([2]; first compound 1 µM): 0.972
- relative viability ([3]; first compound 0.01 µM): 0.844
- relative viability ([3]; first compound 0.03162 µM): 0.764
- relative viability ([3]; first compound 0.1 µM): 0.752
- relative viability ([3]; first compound 0.3162 µM): 0.786
- relative viability ([3]; first compound 1 µM): 0.706
- relative viability ([4]; first compound 0.01 µM): 0.514
- relative viability ([4]; first compound 0.03162 µM): 0.538
- relative viability ([4]; first compound 0.1 µM): 0.523
- relative viability ([4]; first compound 0.3162 µM): 0.524
- relative viability ([4]; first compound 1 µM): 0.483

Cell Line: NCI-H1437
- relative viability ([1]; first compound 0.01 µM): 1.13
- relative viability ([1]; first compound 0.03162 µM): 1.15
- relative viability ([1]; first compound 0.1 µM): 1.1
- relative viability ([1]; first compound 0.3162 µM): 1.06
- relative viability ([2]; first compound 0.01 µM): 1.05
- relative viability ([2]; first compound 0.03162 µM): 1.03
- relative viability ([2]; first compound 0.1 µM): 0.958
- relative viability ([2]; first compound 0.3162 µM): 1.12
- relative viability ([2]; first compound 1 µM): 1.02
- relative viability ([3]; first compound 0.01 µM): 0.902
- relative viability ([3]; first compound 0.03162 µM): 0.862
- relative viability ([3]; first compound 0.1 µM): 0.936
- relative viability ([3]; first compound 0.3162 µM): 0.869
- relative viability ([3]; first compound 1 µM): 0.855
- relative viability ([4]; first compound 0.01 µM): 0.33
- relative viability ([4]; first compound 0.03162 µM): 0.316
- relative viability ([4]; first compound 0.1 µM): 0.301
- relative viability ([4]; first compound 0.3162 µM): 0.31
- relative viability ([4]; first compound 1 µM): 0.29

Cell Line: HCC-827
- relative viability ([1]; first compound 0.01 µM): 0.472
- relative viability ([1]; first compound 0.03162 µM): 0.661
- relative viability ([1]; first compound 0.1 µM): 0.699
- relative viability ([1]; first compound 0.3162 µM): 0.378
- relative viability ([2]; first compound 0.01 µM): 0.958
- relative viability ([2]; first compound 0.03162 µM): 0.94
- relative viability ([2]; first compound 0.1 µM): 0.946
- relative viability ([2]; first compound 0.3162 µM): 0.953
- relative viability ([2]; first compound 1 µM): 0.872
- relative viability ([3]; first compound 0.01 µM): 0.793
- relative viability ([3]; first compound 0.03162 µM): 0.691
- relative viability ([3]; first compound 0.1 µM): 0.742
- relative viability ([3]; first compound 0.3162 µM): 0.885
- relative viability ([3]; first compound 1 µM): 0.821
- relative viability ([4]; first compound 0.01 µM): 0.446
- relative viability ([4]; first compound 0.03162 µM): 0.401
- relative viability ([4]; first compound 0.1 µM): 0.427
- relative viability ([4]; first compound 0.3162 µM): 0.445
- relative viability ([4]; first compound 1 µM): 0.403

Cell Line: NCI-H1650
- relative viability ([1]; first compound 0.01 µM): 0.203
- relative viability ([1]; first compound 0.03162 µM): 0.191
- relative viability ([1]; first compound 0.1 µM): 0.203
- relative viability ([1]; first compound 0.3162 µM): 0.192
- relative viability ([3]; first compound 0.01 µM): 0.666
- relative viability ([3]; first compound 0.03162 µM): 0.696
- relative viability ([3]; first compound 0.1 µM): 0.691
- relative viability ([3]; first compound 0.3162 µM): 0.667
- relative viability ([3]; first compound 1 µM): 0.46
- relative viability ([4]; first compound 0.01 µM): 0.527
- relative viability ([4]; first compound 0.03162 µM): 0.448
- relative viability ([4]; first compound 0.1 µM): 0.431
- relative viability ([4]; first compound 0.3162 µM): 0.383
- relative viability ([4]; first compound 1 µM): 0.353

Cell Line: HCC-366
- relative viability ([2]; first compound 0.01 µM): 0.628
- relative viability ([2]; first compound 0.03162 µM): 0.738
- relative viability ([2]; first compound 0.1 µM): 0.574
- relative viability ([2]; first compound 0.3162 µM): 0.819
- relative viability ([2]; first compound 1 µM): 0.69
- relative viability ([3]; first compound 0.01 µM): 0.978
- relative viability ([3]; first compound 0.03162 µM): 0.861
- relative viability ([3]; first compound 0.1 µM): 0.837
- relative viability ([3]; first compound 0.3162 µM): 0.893
- relative viability ([3]; first compound 1 µM): 0.75
- relative viability ([4]; first compound 0.01 µM): 0.612
- relative viability ([4]; first compound 0.03162 µM): 0.617
- relative viability ([4]; first compound 0.1 µM): 0.591
- relative viability ([4]; first compound 0.3162 µM): 0.557
- relative viability ([4]; first compound 1 µM): 0.587

Cell Line: EKVX
- relative viability ([1]; first compound 0.01 µM): 0.997
- relative viability ([1]; first compound 0.03162 µM): 0.927
- relative viability ([1]; first compound 0.1 µM): 0.938
- relative viability ([2]; first compound 0.01 µM): 1.05
- relative viability ([2]; first compound 0.03162 µM): 1.1
- relative viability ([2]; first compound 0.1 µM): 0.954
- relative viability ([2]; first compound 0.3162 µM): 1.12
- relative viability ([2]; first compound 1 µM): 1.01
- relative viability ([3]; first compound 0.01 µM): 0.737
- relative viability ([3]; first compound 0.03162 µM): 0.78
- relative viability ([3]; first compound 0.1 µM): 0.69
- relative viability ([3]; first compound 0.3162 µM): 0.683
- relative viability ([3]; first compound 1 µM): 0.737
- relative viability ([4]; first compound 0.01 µM): 0.223
- relative viability ([4]; first compound 0.03162 µM): 0.224
- relative viability ([4]; first compound 0.1 µM): 0.24
- relative viability ([4]; first compound 0.3162 µM): 0.241
- relative viability ([4]; first compound 1 µM): 0.23

Cell Line: NCI-H2126
- relative viability ([1]; first compound 0.01 µM): 0.978
- relative viability ([1]; first compound 0.03162 µM): 0.886
- relative viability ([1]; first compound 0.1 µM): 0.884
- relative viability ([1]; first compound 0.3162 µM): 0.745
- relative viability ([2]; first compound 0.01 µM): 0.693
- relative viability ([2]; first compound 0.03162 µM): 0.717
- relative viability ([2]; first compound 0.1 µM): 0.745
- relative viability ([2]; first compound 0.3162 µM): 0.759
- relative viability ([2]; first compound 1 µM): 0.788
- relative viability ([3]; first compound 0.01 µM): 0.727
- relative viability ([3]; first compound 0.03162 µM): 0.691
- relative viability ([3]; first compound 0.1 µM): 0.751
- relative viability ([3]; first compound 0.3162 µM): 0.721
- relative viability ([3]; first compound 1 µM): 0.644
- relative viability ([4]; first compound 0.01 µM): 0.533
- relative viability ([4]; first compound 0.03162 µM): 0.536
- relative viability ([4]; first compound 0.1 µM): 0.51
- relative viability ([4]; first compound 0.3162 µM): 0.51
- relative viability ([4]; first compound 1 µM): 0.455

Cell Line: LK-2
- relative viability ([1]; first compound 0.01 µM): 0.217
- relative viability ([1]; first compound 0.1 µM): 0.208
- relative viability ([1]; first compound 0.3162 µM): 0.197
- relative viability ([2]; first compound 0.01 µM): 0.675
- relative viability ([2]; first compound 0.03162 µM): 0.626
- relative viability ([2]; first compound 0.1 µM): 0.624
- relative viability ([2]; first compound 0.3162 µM): 0.425
- relative viability ([2]; first compound 1 µM): 0.562
- relative viability ([3]; first compound 0.01 µM): 0.208
- relative viability ([3]; first compound 0.03162 µM): 0.195
- relative viability ([3]; first compound 0.1 µM): 0.233
- relative viability ([3]; first compound 0.3162 µM): 0.17
- relative viability ([3]; first compound 1 µM): 0.183
- relative viability ([4]; first compound 0.01 µM): 0.472
- relative viability ([4]; first compound 0.03162 µM): 0.446
- relative viability ([4]; first compound 0.1 µM): 0.411
- relative viability ([4]; first compound 0.3162 µM): 0.314
- relative viability ([4]; first compound 1 µM): 0.317
